Assays:
Experiment in all cases: combination Emax (second highest fraction inhibited in the dose matrix, 72 h); higher = more inhibition; extreme values may be limits of the assay
[1] = test system: CL-11 (Colorectal Carcinoma)
Summary of the method: (§1)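 Cell lines grown in DMEM/F12 or RPMI with 10% FBS were plated in 1536-well plates and held 24 hours at 37°C, 5% CO2 before 72 hours of exposure to two-drug dose matrices, with DMSO typically at 0.2%. CellTiter-Glo 2.0 luminescence gave viability, which was converted to inhibition. Vehicle wells were set to 0 and blank wells to 1. Combination Emax is the second-highest inhibition in the matrix, and Bliss excess is the observed combination effect minus the expected EA + EB − EA·EB, where EA and EB are the single-agent effects.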

[2] = test system: MDA-MB-415 (Breast Carcinoma)
Summary of the method: as §1

[3] = test system: MOLT-13 (T-Lymphoblastic Leukemia)
Summary of the method: as §1

[4] = test system: MONO-MAC-6 (Acute Myeloid Leukemia)
Summary of the method: as §1

NB1 (Neuroblastoma) = test system: NB1 (Neuroblastoma)
Summary of the method: as §1

[5] = test system: NCI-H1876 (Small Cell Lung Carcinoma)
Summary of the method: as §1

[6] = test system: NCI-H1963 (Small Cell Lung Carcinoma)
Summary of the method: as §1

[7] = test system: NCI-H596 (Other Solid Carcinomas)
Summary of the method: as §1

[8] = test system: NMC-G1 (Low Grade Glioma)
Summary of the method: as §1

[9] = test system: P32-ISH (Burkitt's Lymphoma)
Summary of the method: as §1

[10] = test system: PA-TU-8988T (Pancreatic Carcinoma)
Summary of the method: as §1

[11] = test system: RCC-JW (Kidney Carcinoma)
Summary of the method: as §1

[12] = test system: Raji (Burkitt's Lymphoma)
Summary of the method: as §1

[13] = test system: SKG-IIIa (Cervical Carcinoma)
Summary of the method: as §1

[14] = test system: SNU-407 (Colorectal Carcinoma)
Summary of the method: as §1

[15] = test system: SNU-423 (Hepatocellular Carcinoma)
Summary of the method: as §1

[16] = test system: SUP-M2 (T-Cell Non-Hodgkin's Lymphoma)
Summary of the method: as §1

[17] = test system: T84 (Colorectal Carcinoma)
Summary of the method: as §1

[18] = test system: TUR (Acute Myeloid Leukemia)
Summary of the method: as §1

WM35 (Melanoma) = test system: WM35 (Melanoma)
Summary of the method: as §1

Structure (SMILES): CN(CCO)CC[C@H](CSc1ccccc1)Nc1ccc(S(=O)(=O)NC(=O)c2ccc(N3CCC([C@@H](O)c4ccccc4-c4ccc(Cl)cc4)CC3)cc2)cc1S(=O)(=O)C(F)(F)F [AZD4320] + Cn1cnc2c(F)c(Nc3ccc(Br)cc3Cl)c(C(=O)NOCCO)cc21 [Selumetinib] (first compound max 1 µM, 7x7, partner max 3 µM)
- combination Emax [1]: 0.811
- combination Emax [2]: 0.583
- combination Emax [3]: 1
- combination Emax [4]: 0.658
- combination Emax (NB1 (Neuroblastoma)): 0.448
- combination Emax [5]: 1
- combination Emax [6]: 1
- combination Emax [7]: 0.343
- combination Emax [8]: 0.55
- combination Emax [9]: 0.801
- combination Emax [10]: 0.379
- combination Emax [11]: 0.665
- combination Emax [12]: 0.338
- combination Emax [13]: 0.431
- combination Emax [14]: 0.57
- combination Emax [15]: 0.414
- combination Emax [16]: 0.959
- combination Emax [17]: 0.319
- combination Emax [18]: 0.161
- combination Emax (WM35 (Melanoma)): 0.926

Structure (SMILES): CC1(C)CCC(CN2CCN(c3ccc(C(=O)NS(=O)(=O)c4ccc(NCC5CCOCC5)c([N+](=O)[O-])c4)c(Oc4cnc5[nH]ccc5c4)c3)CC2)=C(c2ccc(Cl)cc2)C1 [Venetoclax] + C[C@@H](Nc1cc(F)cc(F)c1)c1cc(C(=O)N(C)C)cc2c(=O)cc(N3CCOCC3)oc12 [AZD8186] (first compound max 1 µM, 7x7, partner max 3 µM)
- combination Emax [1]: 0.083
- combination Emax [2]: 0.663
- combination Emax [3]: 0.431
- combination Emax [4]: 0.808
- combination Emax (NB1 (Neuroblastoma)): 0.145
- combination Emax [5]: 0.182
- combination Emax [6]: 0.758
- combination Emax [7]: 0.241
- combination Emax [8]: 0.171
- combination Emax [9]: 0.341
- combination Emax [10]: 0.257
- combination Emax [11]: 0.293
- combination Emax [12]: 0.172
- combination Emax [13]: 0.168
- combination Emax [14]: 0.142
- combination Emax [15]: 0.383
- combination Emax [16]: 0.344
- combination Emax [17]: 0.101
- combination Emax [18]: 0.209
- combination Emax (WM35 (Melanoma)): 0.0866

Structure (SMILES): CC1(C)CCC(CN2CCN(c3ccc(C(=O)NS(=O)(=O)c4ccc(NCC5CCOCC5)c([N+](=O)[O-])c4)c(Oc4cnc5[nH]ccc5c4)c3)CC2)=C(c2ccc(Cl)cc2)C1 [Venetoclax] + CCN(CCO)CCCOc1ccc2c(Nc3cc(CC(=O)Nc4cccc(F)c4)[nH]n3)ncnc2c1 [AZD2811] (first compound max 1 µM, 7x7, partner max 1 µM)
- combination Emax [1]: 0.267
- combination Emax [2]: 0.231
- combination Emax [3]: 1
- combination Emax [4]: 0.981
- combination Emax (NB1 (Neuroblastoma)): 0.606
- combination Emax [5]: 0.742
- combination Emax [6]: 0.893
- combination Emax [7]: 0.207
- combination Emax [8]: 0.229
- combination Emax [9]: 0.912
- combination Emax [10]: 0.0634
- combination Emax [11]: 0.184
- combination Emax [12]: 0.122
- combination Emax [13]: 0.229
- combination Emax [14]: 0.485
- combination Emax [15]: 0.229
- combination Emax [16]: 0.898
- combination Emax [17]: 0.127
- combination Emax [18]: 0.258
- combination Emax (WM35 (Melanoma)): 0.152

Structure (SMILES): CN(CCO)CC[C@H](CSc1ccccc1)Nc1ccc(S(=O)(=O)NC(=O)c2ccc(N3CCC([C@@H](O)c4ccccc4-c4ccc(Cl)cc4)CC3)cc2)cc1S(=O)(=O)C(F)(F)F [AZD4320] + C[C@@H]1COCCN1C2=NC(=NC(=C2)C3(CC3)[S@](=N)(=O)C)C4=C5C=CNC5=NC=C4 [AZD6738] (first compound max 1 µM, 7x7, partner max 10 µM)
- combination Emax [1]: 0.895
- combination Emax [2]: 0.879
- combination Emax [3]: 1
- combination Emax [4]: 0.943
- combination Emax (NB1 (Neuroblastoma)): 0.936
- combination Emax [5]: 1
- combination Emax [6]: 1
- combination Emax [7]: 0.425
- combination Emax [8]: 0.876
- combination Emax [9]: 0.896
- combination Emax [10]: 0.319
- combination Emax [11]: 0.79
- combination Emax [12]: 0.768
- combination Emax [13]: 0.536
- combination Emax [14]: 0.709
- combination Emax [15]: 0.624
- combination Emax [16]: 0.998
- combination Emax [17]: 0.719
- combination Emax [18]: 0.971
- combination Emax (WM35 (Melanoma)): 0.367

Structure (SMILES): CC1(C)CCC(CN2CCN(c3ccc(C(=O)NS(=O)(=O)c4ccc(NCC5CCOCC5)c([N+](=O)[O-])c4)c(Oc4cnc5[nH]ccc5c4)c3)CC2)=C(c2ccc(Cl)cc2)C1 [Venetoclax] + COc1cc(Nc2ncc3c(n2)-c2ccc(Cl)cc2C(c2c(F)cccc2OC)=NC3)ccc1C(=O)O [Alisertib] (first compound max 1 µM, 7x7, partner max 10 µM)
- combination Emax [1]: 0.673
- combination Emax [2]: 0.379
- combination Emax [3]: 0.896
- combination Emax [4]: 0.964
- combination Emax (NB1 (Neuroblastoma)): 0.561
- combination Emax [5]: 0.866
- combination Emax [6]: 0.949
- combination Emax [7]: 0.381
- combination Emax [8]: 0.244
- combination Emax [9]: 1
- combination Emax [10]: 0.403
- combination Emax [11]: 0.286
- combination Emax [12]: 0.252
- combination Emax [13]: 0.286
- combination Emax [14]: 0.631
- combination Emax [15]: 0.361
- combination Emax [16]: 0.902
- combination Emax [17]: 0.315
- combination Emax [18]: 0.628
- combination Emax (WM35 (Melanoma)): 0.152

Structure (SMILES): Cc1c2c(nn1C)CSCc1cc(n(C)n1)CSc1cc(c3ccccc3c1)OCCCc1c(C(=O)O)n(C)c3c-2c(Cl)ccc13 [AZD5991] + Cn1cnc2c(F)c(Nc3ccc(Br)cc3Cl)c(C(=O)NOCCO)cc21 [Selumetinib] (first compound max 1 µM, 7x7, partner max 3 µM)
- combination Emax [1]: 0.525
- combination Emax [2]: 0.398
- combination Emax [3]: 1
- combination Emax [4]: 1
- combination Emax (NB1 (Neuroblastoma)): 0.238
- combination Emax [5]: 0.748
- combination Emax [6]: 0.427
- combination Emax [7]: 0.241
- combination Emax [8]: 0.31
- combination Emax [9]: 1
- combination Emax [10]: 0.393
- combination Emax [11]: 0.228
- combination Emax [12]: 0.756
- combination Emax [13]: 0.24
- combination Emax [14]: 0.789
- combination Emax [15]: 0.27
- combination Emax [16]: 1
- combination Emax [17]: 0.406
- combination Emax [18]: 0.629
- combination Emax (WM35 (Melanoma)): 0.929

Structure (SMILES): CC1(C)CCC(CN2CCN(c3ccc(C(=O)NS(=O)(=O)c4ccc(NCC5CCOCC5)c([N+](=O)[O-])c4)c(Oc4cnc5[nH]ccc5c4)c3)CC2)=C(c2ccc(Cl)cc2)C1 [Venetoclax] + Cn1cnc2c(F)c(Nc3ccc(Br)cc3Cl)c(C(=O)NOCCO)cc21 [Selumetinib] (first compound max 1 µM, 7x7, partner max 3 µM)
- combination Emax [1]: 0.528
- combination Emax [2]: 0.176
- combination Emax [3]: 0.804
- combination Emax [4]: 0.357
- combination Emax (NB1 (Neuroblastoma)): 0.0633
- combination Emax [5]: 0.205
- combination Emax [6]: 0.76
- combination Emax [7]: 0.222
- combination Emax [8]: 0.175
- combination Emax [9]: 0.239
- combination Emax [10]: 0.272
- combination Emax [11]: 0.144
- combination Emax [12]: 0.0995
- combination Emax [13]: 0.127
- combination Emax [14]: 0.504
- combination Emax [15]: 0.192
- combination Emax [16]: 0.366
- combination Emax [17]: 0.16
- combination Emax [18]: 0.179
- combination Emax (WM35 (Melanoma)): 0.757

Structure (SMILES): CC(=O)Nc1cccc(-n2c(=O)n(C3CC3)c(=O)c3c(Nc4ccc(I)cc4F)n(C)c(=O)c(C)c32)c1 [Trametinib] + Cc1nc(-c2cn3c(n2)-c2ccc(-c4cnn(C(C)(C)C(N)=O)c4)cc2OCC3)n(C(C)C)n1 [Taselisib] (first compound max 1 µM, 7x7, partner max 10 µM)
- combination Emax [1]: 0.989
- combination Emax [2]: 0.848
- combination Emax [3]: 0.698
- combination Emax [4]: 1
- combination Emax (NB1 (Neuroblastoma)): 0.995
- combination Emax [5]: 0.796
- combination Emax [6]: 0.435
- combination Emax [7]: 0.81
- combination Emax [8]: 0.488
- combination Emax [9]: 0.508
- combination Emax [10]: 0.762
- combination Emax [11]: 0.556
- combination Emax [12]: 0.144
- combination Emax [13]: 0.527
- combination Emax [14]: 0.905
- combination Emax [15]: 0.827
- combination Emax [16]: 0.534
- combination Emax [17]: 0.96
- combination Emax [18]: 0.992
- combination Emax (WM35 (Melanoma)): 0.97

Structure (SMILES): COc1cccc(OCCCN)c1-c1cc(Nc2cnc(C#N)cn2)n[nH]1 [Prexasertib] + C[C@@H]1COCCN1C2=NC(=NC(=C2)C3(CC3)[S@](=N)(=O)C)C4=C5C=CNC5=NC=C4 [AZD6738] (first compound max 1 µM, 7x7, partner max 10 µM)
- combination Emax [1]: 0.764
- combination Emax [2]: 0.45
- combination Emax [3]: 1
- combination Emax [4]: 0.993
- combination Emax (NB1 (Neuroblastoma)): 0.773
- combination Emax [5]: 0.981
- combination Emax [6]: 0.952
- combination Emax [7]: 0.487
- combination Emax [8]: 0.314
- combination Emax [9]: 1
- combination Emax [10]: 0.46
- combination Emax [11]: 0.589
- combination Emax [12]: 0.956
- combination Emax [13]: 0.453
- combination Emax [14]: 0.757
- combination Emax [15]: 0.695
- combination Emax [16]: 1
- combination Emax [17]: 0.815
- combination Emax [18]: 1
- combination Emax (WM35 (Melanoma)): 0.833

Structure (SMILES): Cc1c2c(nn1C)CSCc1cc(n(C)n1)CSc1cc(c3ccccc3c1)OCCCc1c(C(=O)O)n(C)c3c-2c(Cl)ccc13 [AZD5991] + Cc1cc2ncnn2cc1Nc1ncc2c(n1)n(C1CCOCC1)c(=O)n2C [AZD7648] (first compound max 1 µM, 7x7, partner max 10 µM)
- combination Emax [1]: 0.133
- combination Emax [2]: 0.619
- combination Emax [3]: 1
- combination Emax [4]: 1
- combination Emax (NB1 (Neuroblastoma)): 0.211
- combination Emax [5]: 0.629
- combination Emax [6]: 0.334
- combination Emax [7]: 0.367
- combination Emax [8]: 0.171
- combination Emax [9]: 1
- combination Emax [10]: 0.319
- combination Emax [11]: 0.319
- combination Emax [12]: 0.728
- combination Emax [13]: 0.197
- combination Emax [14]: 0.675
- combination Emax [15]: 0.362
- combination Emax [16]: 1
- combination Emax [17]: 0.0921
- combination Emax [18]: 0.557
- combination Emax (WM35 (Melanoma)): 0.207
